# Patent US20240166641A1, “HETEROCYCLES AND USES THEREOF” (Kumquat Biosciences Inc., priority 2021, published 2024)
# What was measured:
# mouse C57BL/6 T cells = assay: pSTAT1 signaling in IFNα-stimulated T cells, flow cytometry; format: cell-based; settings: T-cell, 10 uM compound, T cells stimulated for 5 hours by IFNα, read-out: % pSTAT1 in cells treated with subject compounds relative to negative control (DMSO)
# Method: IFNα signaling in mouse C57BL/6 T cells promotes activation of multiple signaling pathways associated with antitumor responses. A key target of this signaling is phosphorylation of the transcription factor STAT1. […] T cells are stimulated for 5 hours by IFNα in the presence or absence of exemplified compounds disclosed herein (e.g., PTPN2 inhibitors) and stained intracellularly with antibodies for phosphorylated STAT1 and then analyzed by flow cytometry. Enhancement of phosphorylation of STAT1 is read out as a percentage over the DMSO control.
# PTP1B = molecular target: T1, PTP1B (Homo sapiens, UniProt P18031); assay: Phosphatase activity assay (Bio-Biochem-DiFMUP), PTP1B; format: biochemical; settings: DiFMUP substrate, room temperature
# T1 sequence (P18031 1-435): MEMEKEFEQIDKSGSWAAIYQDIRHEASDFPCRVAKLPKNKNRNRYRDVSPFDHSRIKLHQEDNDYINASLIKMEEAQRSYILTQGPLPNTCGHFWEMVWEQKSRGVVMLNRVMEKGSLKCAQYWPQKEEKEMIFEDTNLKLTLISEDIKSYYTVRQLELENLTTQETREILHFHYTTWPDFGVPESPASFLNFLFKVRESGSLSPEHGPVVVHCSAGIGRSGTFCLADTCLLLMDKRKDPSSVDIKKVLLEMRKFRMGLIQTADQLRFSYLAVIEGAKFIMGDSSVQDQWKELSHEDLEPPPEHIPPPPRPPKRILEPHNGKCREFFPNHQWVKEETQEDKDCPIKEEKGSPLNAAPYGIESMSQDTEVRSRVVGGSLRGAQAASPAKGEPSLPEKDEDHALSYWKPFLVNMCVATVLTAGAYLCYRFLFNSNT
# Procedure, shortened: (§1)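 Buffer was 50 mM Bis-Tris pH 6.3, 2 mM EDTA, 5 mM DMH, with 10 μM FDP or DiFMUP substrate, enzyme added last, at room temperature. Fluorescent product was read continuously for 15–30 min (DiFMU ex 360/em 450 nm; FMP ex 440/em 530 nm). Initial rates against 10-point inhibitor series were fitted with a 4-parameter equation to give IC50.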
# PTPN2 = molecular target: T2, PTPN2 (Homo sapiens, UniProt P17706); assay: Phosphatase activity assay (Bio-Biochem-DiFMUP), PTPN2; format: biochemical; settings: DiFMUP substrate, room temperature
# T2 sequence (P17706 1-415): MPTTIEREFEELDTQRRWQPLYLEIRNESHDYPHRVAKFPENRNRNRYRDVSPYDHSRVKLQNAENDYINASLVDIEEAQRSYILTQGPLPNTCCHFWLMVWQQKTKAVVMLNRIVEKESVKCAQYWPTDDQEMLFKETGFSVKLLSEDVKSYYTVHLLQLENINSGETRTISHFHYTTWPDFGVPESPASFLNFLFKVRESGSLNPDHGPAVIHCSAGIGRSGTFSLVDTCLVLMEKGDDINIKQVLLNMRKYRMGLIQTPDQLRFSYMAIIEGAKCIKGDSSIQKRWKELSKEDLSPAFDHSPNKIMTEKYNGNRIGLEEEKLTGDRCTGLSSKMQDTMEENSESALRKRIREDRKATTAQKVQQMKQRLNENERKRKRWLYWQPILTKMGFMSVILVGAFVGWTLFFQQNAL
# Procedure, shortened: as §1
# [1] = test system: C57B3L/6 mouse primary T cells; assay: T-cell activation: CD25 expression on primary T cells stimulated with anti-CD3/CD28; format: cell-based; settings: 10 uM compound, primary T cells stimulated with antibodies to CD3 and CD28
# Method: The increase of T cell activation and most importantly T cell function is a strategy for novel immune oncology approaches to promote tumor immunity. In vitro assays using wildtype C57B3L/6 mouse primary T cells are commonly used to assess the impact of compound on T cell activation and function. To assess the ability of compounds disclosed here (e.g., PTPN2 inhibitors) to stimulate T cell activation, primary T cells stimulated with antibodies to CD3 and CD28 are treated with or without exemplary compounds (at 10 uM) disclosed herein are stained with antibodies directed to T-cell activation markers, such as CD25. Additional markers including without limitation CD69, SLAMF6, TIM3, and PD1 can also be employed as a proxy for T cell activation.
Compound,IC50 (PTP1B),IC50 (PTPN2),activity at 10 µM (mouse C57BL/6 T cells),% CD25 expression in cells treated with subject compounds relative to negative control (DMSO) [1]
CNc1ccc2cc(O)c(N3CC(=O)NS3(=O)=O)c(F)c2n1 [Compound 153],≤ 1000 nM,≤ 1000 nM,249%,
CN(C)CCOc1ccc2cc(O)c(N3CC(=O)NS3(=O)=O)c(F)c2n1 [Compound 178],≤ 1000 nM,≤ 1000 nM,172%,
COc1ccc2cc(O)c(N3CC(=O)NS3(=O)=O)c(F)c2n1 [Compound 154],≤ 1000 nM,≤ 1000 nM,303%,
O=C1CN(c2c(O)cc3ccc(OCC4CCS(=O)(=O)CC4)nc3c2F)S(=O)(=O)N1 [Compound 143],≤ 1000 nM,≤ 1000 nM,161%,323%

# Now from value to compound, other results behind:
IC50 (PTP1B),IC50 (PTPN2),Compound,activity at 10 µM (mouse C57BL/6 T cells),% CD25 expression in cells treated with subject compounds relative to negative control (DMSO) [1]
≤ 1000 nM,≤ 1000 nM,CN1CCCC(COc2ccc3cc(O)c(N4CC(=O)NS4(=O)=O)c(F)c3n2)C1 (stereo not shown) [Compound 176],229%,206%
≤ 1000 nM,≤ 1000 nM,CC(C)CCNc1ccc2cc(O)c(N3CC(=O)NS3(=O)=O)c(F)c2n1 [Compound 117],210%,363%
≤ 1000 nM,≤ 1000 nM,"CC(C)CCOc1ccc2cc(O)c(N3CC(=O)NS3(=O)=O)c(F)c2n1 [Compound 135, 5-(8-fluoro-6-hydroxy-2-(isopentyloxy)quinolin-7-yl)-1,2,5-thiadiazolidin-3-one 1,1-dioxide]",255%,431%
